Source: patent US12577300B2, “Neutralizing antibodies to human endothelin” (Father Flanagan's Boys' Home Doing Business as Boys Town …, priority 2019, dated 2026)
One block for each molecule: values may come before it.

How the values were obtained:
ACE = target: T1, ACE (Mus musculus, UniProt P09470); settings: cited from earlier work
T1 construct: host or cells: 129 Sv autosomal Alport mice (in vivo)
T1 sequence (P09470 35-1312): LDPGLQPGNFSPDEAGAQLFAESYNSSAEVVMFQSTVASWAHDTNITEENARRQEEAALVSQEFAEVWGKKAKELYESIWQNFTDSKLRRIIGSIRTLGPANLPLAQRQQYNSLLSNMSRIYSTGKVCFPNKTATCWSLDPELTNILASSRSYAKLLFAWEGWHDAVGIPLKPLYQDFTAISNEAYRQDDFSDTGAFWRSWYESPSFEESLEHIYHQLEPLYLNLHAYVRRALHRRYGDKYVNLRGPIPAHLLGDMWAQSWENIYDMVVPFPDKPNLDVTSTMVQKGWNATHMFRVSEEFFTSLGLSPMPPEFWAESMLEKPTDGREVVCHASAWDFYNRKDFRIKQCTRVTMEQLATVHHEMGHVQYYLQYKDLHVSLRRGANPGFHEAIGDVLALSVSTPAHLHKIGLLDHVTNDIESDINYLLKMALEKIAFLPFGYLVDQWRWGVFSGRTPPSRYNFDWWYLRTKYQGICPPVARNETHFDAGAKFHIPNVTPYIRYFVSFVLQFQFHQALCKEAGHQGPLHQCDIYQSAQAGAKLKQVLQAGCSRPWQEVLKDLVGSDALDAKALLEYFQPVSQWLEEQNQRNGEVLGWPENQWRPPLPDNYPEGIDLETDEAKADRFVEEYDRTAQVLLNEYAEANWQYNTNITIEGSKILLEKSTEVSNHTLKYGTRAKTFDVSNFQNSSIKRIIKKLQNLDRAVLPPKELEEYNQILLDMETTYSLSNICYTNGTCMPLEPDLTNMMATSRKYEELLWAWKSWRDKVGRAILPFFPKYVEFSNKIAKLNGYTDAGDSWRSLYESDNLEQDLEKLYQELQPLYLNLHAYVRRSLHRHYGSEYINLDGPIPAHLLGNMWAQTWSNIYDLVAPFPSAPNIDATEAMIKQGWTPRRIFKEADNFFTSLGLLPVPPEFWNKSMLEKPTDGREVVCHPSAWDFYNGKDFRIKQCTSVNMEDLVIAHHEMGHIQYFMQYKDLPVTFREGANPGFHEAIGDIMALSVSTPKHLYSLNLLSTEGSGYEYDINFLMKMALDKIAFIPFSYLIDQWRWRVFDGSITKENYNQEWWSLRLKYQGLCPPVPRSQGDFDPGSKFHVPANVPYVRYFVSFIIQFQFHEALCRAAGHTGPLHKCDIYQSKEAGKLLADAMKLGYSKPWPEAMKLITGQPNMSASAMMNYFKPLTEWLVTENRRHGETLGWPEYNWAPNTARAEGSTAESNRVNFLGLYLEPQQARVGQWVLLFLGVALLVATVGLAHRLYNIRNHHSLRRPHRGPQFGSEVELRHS

RAC1/CDC42 Rho GTPases = target: T2, RAC1/CDC42 Rho GTPases (Mus musculus, UniProt P63001); settings: Zallocchi et al. 2013; cited from earlier work
T2 construct: host or cells: Alport mice (in vivo)

[1] = tested on: pro-fibrotic genes, including Snail1; assay: QIAGEN mouse fibrosis microarray of glomerular RNA from treated Alport mice; type: in vivo
Method: FIG. 2. Glomerular RNA from Alport mice treated with vehicle, Sitaxentan, or nAb #7 was analyzed using QIAGEN mouse fibrosis microarray. The data reveal that Sitaxentan (and Ambrisentan) induce a number of pro-fibrotic genes, including Snail1, which is known to play a key role in promoting renal fibrosis (Grande et al., 2015, Nat Med; 21(9):989-97). […] The data is consistent with aberrant signaling activation by classic small molecule ETAR antagonists that results in pro-fibrotic effects, defining a clear potential advantage of the biologic over small molecule approach.
Glomerular RNA from sitaxentan-treated and neutralizing antibody-treated mice was analyzed using QIAGEN mouse fibrosis microarrays.

endothelin A receptor [2] = target: T3, endothelin A receptor (Mus musculus, UniProt Q61614); settings: Dufek et al. 2016, cited from earlier work
T3 construct: Endothelin A receptors are expressed primarily on mesangial cells; endogenous in cells; host or cells: Alport mice (in vivo)
T3 sequence (Q61614 21-427): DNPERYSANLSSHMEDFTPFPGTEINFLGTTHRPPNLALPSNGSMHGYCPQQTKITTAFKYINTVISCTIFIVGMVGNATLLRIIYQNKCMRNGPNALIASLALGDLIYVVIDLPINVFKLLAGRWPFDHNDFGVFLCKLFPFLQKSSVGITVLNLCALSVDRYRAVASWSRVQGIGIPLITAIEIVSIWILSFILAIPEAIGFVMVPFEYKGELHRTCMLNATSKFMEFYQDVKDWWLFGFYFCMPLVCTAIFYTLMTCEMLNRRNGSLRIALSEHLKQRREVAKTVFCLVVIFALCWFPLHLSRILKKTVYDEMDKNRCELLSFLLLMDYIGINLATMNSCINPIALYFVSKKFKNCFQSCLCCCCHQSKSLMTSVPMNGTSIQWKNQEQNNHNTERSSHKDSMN

endothelin A receptor [3] = target: T3, endothelin A receptor; assay: Sitaxentan treatment of Alport mice; type: in vivo; settings: 30 mg/kg once daily
[4] = given once daily; cited from earlier work
endothelin A receptor [5] = target: T3, endothelin A receptor; assay: Sitaxentan treatment of Alport mice; type: in vivo
Method: FIG. 1. […] Alport mice were treated with the indicated dose of Sitaxentan once daily from 2 to 7 weeks of age. Real time RT-PCR analysis for the indicated transcripts was performed on glomerular RNA.
FIGS. 3A and 3B. […] 129-Alport animals were treated with the endothelin A receptor specific blocking agent Sitaxentan from 2 weeks to 7 weeks of age.
FIGS. 4A and 4B. […] In FIG. 4A, urine was collected at the indicated timepoints and analyzed for albumin using an ELISA kit. Albumin measures were normalized to urinary creatinine. […] In FIG. 4B, BUN measures were performed on serum from 7-week-old vehicle or Sitaxentan-treated Alport mice.

Structure (SMILES): CCOC(=O)[C@H](CCc1ccccc1)N[C@@H](C)C(=O)N1[C@H](C(=O)O)C[C@@H]2CCC[C@@H]21 [ramipril]
degree of GBM damage (ACE; Gross et al. 2003): comparable to untreated Alport mice | lifespan (ACE; administered before onset of proteinuria, Gross et al. 2003): doubled | blood pressure (ACE; mouse, in vivo): reduces blood pressure

Structure (SMILES): CCN(CC)CCCC(C)Nc1nc(C)cc(Nc2ccc3nc(C)cc(N)c3c2)n1 (stereo not drawn) [NCS 23766]
laminin 211 deposition in the Alport GBM (RAC1/CDC42 Rho GTPases): largely blocked

induction of pro-fibrotic / pro-inflammatory genes incl. Snail1 in glomeruli [1]: markedly inducing | GBM dysmorphology (TEM) (endothelin A receptor [5]; 7-week-old Alport mice): normalized | serum BUN levels (endothelin A receptor [5]; 7-week-old mice): reduces | GBM laminin α2 deposition (endothelin A receptor [5]; 129 Sv/J autosomal Alport mice): greatly reduced | age at which measurable urinary albumin was first detected (endothelin A receptor [5]; albumin ELISA normalized to urinary creatinine): 6 weeks of age | infiltration of glomerular capillaries with mesangial filopodia (endothelin A receptor [5]; integrin α8 immunopositivity): greatly reduced | Alport pathogenesis (endothelin A receptor [5]; low dose 10 mg/kg once daily, 2 to 7 weeks of age): ameliorated Alport pathogenesis | glomerular mRNA expression of cytokines and metalloproteinases (MMP-9, MMP-10, MMP-12, MCP-1, IL-6) (endothelin A receptor [5]; real time RT-PCR): reduced to near control levels | % glomerulosclerosis (endothelin A receptor [5]; treated 2 to 7 weeks of age): reduced to near control levels | fibrosis scores (endothelin A receptor [5]; treated 2 to 7 weeks of age): reduced to near control levels | onset and progression of proteinuria (endothelin A receptor [5]; treated 2 to 7 weeks of age): significantly delays
Structure (SMILES): Cc1cc2c(cc1CC(=O)c1sccc1S(=O)(=O)Nc1onc(C)c1Cl)OCO2 [Sitaxentan]
blood pressure (endothelin A receptor [2]; 129 Sv autosomal Alport mouse model): no effect on blood pressure | increase in lifespan (endothelin A receptor [2]; Alport mice): 20% | GBM damage vs vehicle-treated Alport mice (endothelin A receptor [2]): significantly reduced GBM damage | lifespan vs vehicle (endothelin A receptor [3]): shorter lifespan than vehicle treated Alport mice | half-life in mice [4]: 6 h | therapeutic effect (endothelin A receptor [5]; 5 mg/kg): little to no significant therapeutic effect | BUN (endothelin A receptor [5]; 30 mg/kg dose): not statistically different from vehicle treated Alport mice | fibrosis scores (endothelin A receptor [5]; 30 mg/kg dose): not statistically different from vehicle treated Alport mice | glomerulosclerosis scores (endothelin A receptor [5]; 30 mg/kg dose): not statistically different from vehicle treated Alport mice | proteinuria (endothelin A receptor [5]; 30 mg/kg dose): not statistically different from vehicle treated Alport mice | renal disease (renotoxicity) (endothelin A receptor [5]; increasing doses above 10 mg/kg): exacerbated renal disease

Structure (SMILES): COC(c1ccccc1)(c1ccccc1)[C@H](Oc1nc(C)cc(C)n1)C(=O)O [Ambrisentan]
half-life in mice [4]: 6 h
